Reference: patent US6468964B1, “Control of acidic gut syndrome” (University of New England, of Armidale, priority 1997, dated 2002)
Values joined by “and” are separate entries in the source; they are usually repeats but may differ in a detail not shown here. Identical values can stand only once. Marks after values point to notes of the source that are not given here.

Experiments:
[1] = test system: acid accumulation in the hind gut; assay: Acidic gut syndrome in pigs fed HGF diet: digesta/faecal pH and faecal consistency; format: in vivo, pig
Source text: Pigs were weaned at 4 weeks of age and housed individually in pens with concrete floors with weld mesh dividing walls in temperature controlled facilities. The pens were cleaned twice per day and drinking water was provided by an automatic watering system. All animals were handled daily to acclimatise them to experimental procedures associated with sampling.
Piglets were fed ad libitum on the basal diet for two weeks until commencement of dietary treatments. The diets were formulated to ensure balanced provisions of nutrients for growth and contained 67.5% carbohydrate (rice, cornflour and raftilose) and 32.5% protein mix. The protein mix contained 55% meat meal, 32% fishmeal, 6% casein and 6% vitamins, oil and synthetic amino acids. The proportion of total carbohydrates contributed by rice, corn flour and raftilose on each day of the study is shown in Table 1 together with the total amount offered per pig.
1. Daily collection of faeces from the pens of each pig to assess faecal consistency and for measurement of pH. Faecal consistency was assessed on a scale 1 to 5 with 1 being liquid diarrhoea and 5 being dry, separate, well formed faeces.
(§1) 7. On day 7, half of the pigs in each treatment group were euthanased with pentobarbitone. Post mortem measurements were made of size of the digestive tract, the pH of diqesta in different part of the tract and the digestive tract and other organs were examined for any sign of abnormal tissue appearance. On day 8 the remaining pigs were euthanased and the same post mortem measurements made on these animals.

[2] = test system: Caecal Lactobacilli; assay: Pigs fed HGF diet: caecal Lactobacilli count; format: in vivo; conditions: HGF diet with 25 mg virginiamycin/kg DM
Source text: (§2) Studies of rapid carbohydrate fermentation and acid build up in the hind gut of sheep and horses have shown that the concentration of volatile fatty acids (VFA) starts to increase and pH starts to drop before there is a proliferation of gram positive bacteria (particularly Streptococcus bovis and Lactobacilli) capable of producing lactic-acid. Lactic acid is a stronger acid than the VFA and is not absorbed from the caecum as quickly as VFA, and this combination of factors leads to low pH which is the first step in development of acidic gut syndrome. Virginiamycin was included in the diet of one of the two dietary treatments containing raftilose and high-maize starch to investigate its effectiveness in controlling lactic acid accumulation and hind gut pH as a potential method for preventing or controlling acidic gut syndrome.
as §1

[3] = test system: Caecal Strep. Bovis; assay: Pigs fed HGF diet: caecal Strep. bovis count; format: in vivo, Streptococcus bovis; conditions: HGF diet with 25 mg virginiamycin/kg DM
Source text: as §2, §1

[4] = test system: immune system (neutrophils, lymphocytes, acute phase protein, IL-1); assay: Pigs fed HGF diet: changes in immune system (white blood cells, acute phase protein, IL-1); format: in vivo, pig; conditions: HGF diet with 25 mg virginiamycin/kg DM
[5] = Pigs fed HGF diet: feed intake, weight change, weight of washed gut; format: in vivo, pig
Procedure: 3. Body weights were measured 2 days before the start of feeding experimental diets, on day 3 and day 7.
5. The amount of feed not consumed was measured each afternoon and intake calculated as a % of amount offered.
as §1

[6] = test system: fermentative acidosis in the rumen and hind gut; assay: Sheep overfed high-barley pellets: rumen and faecal pH, lactate, rumen VFA; format: in vivo
Source text: (§3) Six full mouth cannulated cross-bred sheep, weighing approximately 45 kg were used in the trial. These sheep were housed in individual pens on a wood grating floor in an enclosed animal house. All sheep were fed once per day, and water was available at all times ad libitum. All sheep were fed a basal diet consisting of oaten chaff plus 1% urea and 1% mineral pre-mix (Pfizer Animal Health Pty. Ltd.). At time 0 in the experiment, all sheep were fed a pellet containing high levels of barley with or without virginiamycin (VM). The sheep were autopsied 48 hours after grain feeding.
(§4) All sheep were offered 1000 g of a pellet containing 76% barley, 17% lucerne, 3.5% cottonseed meal, 1% urea and 1.5% limestone at the start of the experiment. The sheep were then offered another 1000 g of the pellet 12 hours later. All sheep consumed all of the pelleted feed offered. Half of the sheep received the pellets with no dietary additives, and the other half received the pellets with virginiamycin (VM) added at 30 mg/kg. Eskalin (Pfizer Animal Health Pty. Ltd., 20 g virginiamycin/kg) was included at 1.5 g/kg pellets to provide 30 mg VM/kg in the mixed diet. The animals were monitored closely after receiving grain and autopsied 48 hours after initial grain feeding.
(§5) All sheep were fitted with faecal collection bags, which consisted of a PVC ring attached to the posterior of the sheep to which a plastic bag was attached in order to collect total faecal output. Rumen fluid was taken via the rumen fistula. Rumen and faecal samples were taken at 4 hourly intervals for the first 12 hours after grain feeding. Samples were then taken at 24, 36 and 48 hours after initial feeding.
Rumen fluid pH was analysed immediately using a portable pH meter (‘Piccolo 2’ ATC pH meter by Hanna Instruments). A sample was also added to a 20 mL McCartney bottle containing approximately 7 μL of concentrated H2SO4, and frozen for later analysis of lactic and volatile fatty acids.
(§6) A representative 20 g sample of faeces was taken into a small vial, an equal volume of water added and mixed well. The faecal pH was then measured immediately on this sample as for rumen fluid. A further sample was placed in a sterile container and an equal weight of deionised water added to it. This was mixed well using a sterile spatula, and then centrifuged at 15000 rpm for 20 mins. The supernatant was then transferred using a sterile pipette to 3 individual microfuge tubes and frozen for later analysis for TNF-α. TNF-α was measured in the faeces using an ELISA method.

[7] = test system: TNF-α; assay: Sheep overfed high-barley pellets: faecal TNF-α by ELISA; format: in vivo; conditions: VM 30 mg/kg pellets; for Faecal TNF-α concentration, individual sheep: sheep 2, 4, 6, listed as VM
Source text: as §3, §4, §5, §6

[8] = test system: acid accumulation in the hind gut; assay: Acidic gut syndrome in pigs fed HGF diet: digesta/faecal pH and faecal consistency; format: in vivo, pig; conditions: HGF diet with 25 mg virginiamycin/kg DM, post mortem
[9] = pigs on HGF diet, 25 mg virginiamycin/kg DM
[10] = weaner pigs, HGF diet with 25 mg virginiamycin/kg dietary DM, post mortem
[11] = pigs, post mortem, HGF diet with 25 mg virginiamycin/kg DM
[12] = proportion mmol/100 mmol, sheep, VM 30 mg/kg
[13] = sheep fed high grain pellets, VM 30 mg/kg
[14] = sheep overfed grain, VM 30 mg/kg pellets
[15] = sheep overfed grain, VM 30 mg/kg, 36 and 48 hour samples
[16] = sheep, VM 30 mg/kg versus no additive

## virginiamycin
[1]; pigs fed HGF diet with or without virginiamycin
  pH in different parts of the digestive tract (FIG. 6, words): consistent effect in reducing acid accumulation (increasing pH) in all parts of the digestive tract
[1]; [9]
  Acid accumulation in the hind gut and in faeces: effective in reducing the extent of acid accumulation
  Effect on faecal consistency: significantly improved faecal consistency
[1]; pigs, HGF diet with 25 mg virginiamycin/kg DM, post mortem
  Ileal pH: 6.3
[1]; scale 1 to 5, 1 liquid diarrhoea, 5 dry well formed faeces, pigs, HGF diet with 25 mg virginiamycin/kg DM
  Faecal consistency (av d1-5): 3.53^c
[1]; weaner pigs, HGF diet with 25 mg virginiamycin/kg DM
  Average faecal pH: 6.0^b
[1]; weaner pigs, HGF diet with 25 mg virginiamycin/kg DM, day 2
  Faecal pH (day 2): 6.3^b
[1]; weaner pigs, HGF diet with 25 mg virginiamycin/kg DM, day 5
  Faecal pH (day 5): 6.0^b
[1]; [10]
  Caecal pH: 5.7^ab
  Rectal pH: 6.3^b
[2]
  Caecal Lactobacilli: 1.4 × 10^10
[3]
  Caecal Strep. Bovis: 3.2 × 10^9
[4]
  Acute phase protein CD3: 5.9
  IL-1 (av. days 1, 2, 5 & 8): 1.6
[4]; day 5
  IL-1 (day 5): 2.0
[4]; jugular blood
  Lymphocytes (L): 11.0
[4]; neutrophil to lymphocyte ratio
  N:L ratio: 0.57a
[5]; pigs on HGF diet treated with virginiamycin
  Feed intake versus HGF diet alone: higher intake
[5]; pigs, HGF diet with 25 mg virginiamycin/kg DM
  Weight change (days 3 to 7): 1.13
[5]; pigs, HGF diet with 25 mg virginiamycin/kg DM, day 4
  Intake (% offered) (day 4): 81^ab % offered
[5]; pigs, HGF diet with 25 mg virginiamycin/kg DM, intake calculated as % of amount offered
  Av intake (days 1 to 8): 83^ab
[5]; [11]
  Weight of washed gut (g): Caecum: 31.4^a g
  Weight of washed gut (g): Rectum: 35.1 g
  Weight of washed gut (g): Stomach: 115 g
[6]; [12]
  Rumen Ac (%): 50.941%
  Rumen But (%): 8.75%
  Rumen Pr (%): 34.36%
[6]; rumen, sheep fed VM versus no additive
  Ratio of Propionate to Acetate+(2×Butyrate): significantly higher
[6]; [13]
  Rumen D-Lactic acid: 25.12 mmol/L
  Rumen L-Lactic acid: 7.33 mmol/L
  Rumen total VFA: 81.80 mmol/L
[6]; [14]
  Average faecal pH: 7.28
  Average rumen pH: 5.84
[6]; [15]
  Faecal D-lactate: 7.43
  Faecal L-lactate: 28.2
[6]; [16]
  Difference in rumen or faecal pH between treatment groups: no differences
  Treatment effect on rumen lactic acid concentration: No treatment effects
[6]; sheep, high-barley pellets with or without virginiamycin, autopsy at 48 hours
  pH in different parts of the digestive tract (FIG. 8, words): consistent effect in reducing acid accumulation (increasing pH) in all parts of the digestive tract
[7]; experimental hour 0
  Faecal TNF-α concentration, group average: 12333
  Faecal TNF-α concentration, individual sheep: 9000 and 16000 and 12000
[7]; experimental hour 24
  Faecal TNF-α concentration, group average: 17667
  Faecal TNF-α concentration, individual sheep: 12000 and 24000 and 17000
[7]; experimental hour 36
  Faecal TNF-α concentration, group average: 62444
  Faecal TNF-α concentration, individual sheep: 98333 and 64000 and 25000
[7]; experimental hour 48
  Faecal TNF-α concentration, group average: 124222
  Faecal TNF-α concentration, individual sheep: 230667 and 66000 and 76000
[8]
  Stomach pH (days 8/9): 3.6
